Values of other authors in patent US20170172905A1, “AGENT FOR TEMPORARILY RESHAPING KERATIN-CONTAINING FIBERS COMPRISING PRESERVATIVE” (Henkel AG & Co. KGaA, priority 2015, published 2017).

logP value: 5.25
Structure (SMILES): CCCCC(CC)CN1CN(CC(CC)CCCC)CC(C)(N)C1 (stereo not shown) [hexetidine, 5-amino-1,3-bis(2-ethylhexal)hexahydro-5-methylpyrimidine]
